Measurements taken from patent US8329843B2, “Method for producing amide compound” (Mitsui Chemicals, Inc., priority 2005, dated 2012).

System: microbial cell containing a nitrile hydratase
Assay type: biochemical
Conditions: benzene 26 ppm or acrolein 2 ppm in raw material acrylonitrile; more wet microbial cell needed
Description: There were prepared a 1-liter glass flask equipped with a stirrer as a first reactor and a Teflon (trademark) tube with an inside diameter of 5 mm and a length of 20 m as a second reactor. To the first reactor was charged 400 g of water in advance.
In accordance with the method described in Japanese Patent Application Laid-Open Publication No. 2001-340091, a microbial cell containing a nitrile hydratase was cultured and the resulting wet microbial cell was suspended in a 0.3 mM-NaOH aqueous solution. The suspension and the acrylonitrile b were continuously fed into the first reactor under stirring at a rate of 49 g/h and 31 g/h, respectively. In addition, the reaction solution was continuously taken out from the first reactor at a rate of 80 g/h so that the liquid level of the first reactor was maintained constant. The liquid taken out was continuously fed into the second reactor at a rate of 80 g/h and the reaction was further performed in the second reactor. […]
The amount of the wet microbial cell added to the 0.3 mM-NaOH aqueous solution was adjusted so that the conversion rate to acrylamide at the outlet of the first reactor was 90% or higher and the concentration of acrylonitrile at the outlet of the second reactor was at the detection limit or less (100 ppm or less). The conversion rate to acrylamide was determined by the analysis of HPLC. […]

Structure (SMILES)	inhibition of reaction by impurity in acrylonitrile
c1ccccc1 [benzene]	inhibition of reaction by benzene was confirmed
C=CC=O [acrolein]	inhibition of reaction by acrolein was confirmed
